# Test results from patent US11315685B2, “Method and system for predicting optimal epilepsy treatment regimes” (UCB BIOPHARMA SPRL, priority 2017, dated 2022).
# Tested on: epilepsy patients
# Test: treatment stability of AED monotherapy in the one year evaluation period (medical claims data)
# Assay type: in vivo
# Details: percentage of patients for which the treatment worked based on the clinician's recommendation; stable = monotherapy for at least 80% of the one year evaluation period without switching; adult epilepsy patients
# Description: Step 18 may also include a substep 18e of filtering patients according to a defined target variable indicating AED treatment regime efficacy. In some preferred embodiments, the target variable is treatment stability. An aim of the present disclosure is to measure the efficacy of treatment regimens consisting of one or more AEDs. One way of measuring the efficacy of treatment would be to monitor the patient's progress with respect to seizure frequency before and after treatment. A reduction in the number of seizures would imply that the regimen is effective. […] Accordingly, method 10 defines a proxy for treatment effectiveness. Based on input from domain experts and clinicians, method 10 uses treatment stability as an indicator of the effectiveness of a particular treatment. In some preferred embodiments, a treatment regimen is considered stable for a patient if the patient satisfies a treatment change criteria and a minimum coverage criteria. […] The minimum coverage criteria is satisfied if the patient complies with the treatment regimen which has been prescribed for at least a predetermined percentage of the evaluation period. In one preferred embodiment, the minimum coverage criteria is satisfied if the patient complies with the treatment regimen which has been prescribed for at least 80% evaluation period.
# If the MPR is greater than 80%, the patient can be determined to be stable for that drug.
# For the unstable outcome, a treatment change occurs during the evaluation period—i.e., within […] the index date at which a first treatment regimen R1 is prescribed—in the form of a second treatment regimen R2. For the stable outcome, a treatment change—i.e., the second regimen R2—occurs after the evaluation period.
# In this embodiment, for simplicity, the three aforementioned treatment categories—i.e., ADD, SWITCH and NEW—are not differentiated between when defining the index date and, in contrast to the technique in Devinsky et al., all medication claims for a patient in the baseline period before the AED-specific index date are used to train the AED-specific predictive model for the patient. In other embodiments, the treatment categories can be analyzed separately to assess the efficacy of a treatment regimen in different scenarios. In this embodiment, predictive models are built only for monotherapies, instead of for both monotherapies and combination therapies. For a particular AED, all the adult patients who have been prescribed the AED, have at least 1 year of medical history before the prescription and have at least one year of evaluation period after prescription are analyzed. As mentioned above, this subset of patients constitutes the cohort for the predictive model for the AED being analyzed and the target variable is treatment stability.
# The control patients refer to the number of patients which switched to treatments other than the one being analyzed in the evaluation window and were considered unstable on that treatment regimen. The percentage baseline success rate refers to the percentage of patients for which the treatment worked based on the clinician's recommendation. The AUC refers to the area under the ROC curve or the C-statistic which is the ratio of the true positive rate (TPR) and the false positive rate (FPR) for different values of the threshold. This ratio reflects the performance of the model since a higher AUC would imply that higher TPR was achieved and more true positives were obtained than false positives.
row,SMILES,Percentage Baseline Success Rate
1,NC(=O)N1c2ccccc2C=Cc2ccccc21 [CARBAMAZEPINE],54.76
2,"O=C1CN=C(c2ccccc2Cl)c2cc([N+](=O)[O-])ccc2N1 [CLONAZEPAM, Clonazepam]",30.98
3,"CN1C(=O)CN=C(c2ccccc2)c2cc(Cl)ccc21 [DIAZEPAM, Diazepam]",25.22
4,"NCC1(CC(=O)O)CCCCC1 [GABAPENTIN, Gabapentin]",35.69
5,"COC[C@@H](NC(C)=O)C(=O)NCc1ccccc1 [LACOSAMIDE, Lacosamide]",37.73
6,"Nc1nnc(-c2cccc(Cl)c2Cl)c(N)n1 [LAMOTRIGINE, Lamotrigine]",53.32
7,"CC[C@@H](C(N)=O)N1CCCC1=O [LEVETIRACETAM, Levetiracetam]",54.99
8,"O=C1Nc2ccc(Cl)cc2C(c2ccccc2Cl)=NC1O (stereo not drawn) [LORAZEPAM, Lorazepam]",25.28
9,"NC(=O)N1c2ccccc2CC(=O)c2ccccc21 [OXCARBAZEPINE, Oxcarbazepine]",52.83
10,"CCC1(c2ccccc2)C(=O)NC(=O)NC1=O [PHENOBARBITAL, Phenobarbital]",55.76
11,"O=C1NC(=O)C(c2ccccc2)(c2ccccc2)N1 [PHENYTOIN, Phenytoin]",45.01
12,"CC(C)C[C@H](CN)CC(=O)O [PREGABALIN, Pregabalin]",28.60
13,"CCC1(c2ccccc2)C(=O)NCNC1=O [PRIMIDONE, Primidone]",48.94
14,"CC1(C)O[C@@H]2[C@@H](CO[C@@]3(COS(N)(=O)=O)OC(C)(C)O[C@@H]23)O1 [TOPIRAMATE, Topiramate]",38.97
15,"NS(=O)(=O)Cc1noc2ccccc12 [ZONISAMIDE, Zonisamide]",42.95
